Calls of active or inactive are those of the source.
Columns and labels:
[1] = biological target: DNA dC->dU-editing enzyme APOBEC-3G (Homo sapiens, UniProt Q9HC16); assay: Dose Response confirmation of small molecule APOBEC3G DNA Deaminase Inhibitors via a fluorescence-based single-stranded DNA deaminase assay. [Related pubchem assays (depositor defined):AID493012, AID493028]; assay type: functional
[2] = biological target: Peroxisome proliferator-activated receptor gamma/Nuclear receptor coactivator 2 (Homo sapiens, UniProt P37231); assay type: functional;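 also: agonist potency for raising coactivator recruitment to the receptor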
[3] = biological target: Peroxisome proliferator-activated receptor gamma/Nuclear receptor coactivator 1 (Homo sapiens, UniProt P37231); assay type: functional;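 also: agonist potency as compounds enhance coactivator SRC-1 recruitment to PPARgamma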
[4] = biological target: Peroxisome proliferator-activated receptor gamma/Nuclear receptor coactivator 3 (Homo sapiens, UniProt P37231); assay type: functional;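 also: agonist potency for raising coactivator recruitment to the receptor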
Major prion protein = Major prion protein (Homo sapiens, UniProt P04156); assay type: functional, cell-based
cells [5] = assay: cells
cells [6] = assay type: functional, cell-based
cells [7] = assay type: functional, cell-based; remark: listed apart in the source
CAAX prenyl protease 2 = biological target: T1, CAAX prenyl protease 2 (Saccharomyces cerevisiae S288c, UniProt Q03530); assay type: biochemical
T1 sequence (Q03530 whole entry): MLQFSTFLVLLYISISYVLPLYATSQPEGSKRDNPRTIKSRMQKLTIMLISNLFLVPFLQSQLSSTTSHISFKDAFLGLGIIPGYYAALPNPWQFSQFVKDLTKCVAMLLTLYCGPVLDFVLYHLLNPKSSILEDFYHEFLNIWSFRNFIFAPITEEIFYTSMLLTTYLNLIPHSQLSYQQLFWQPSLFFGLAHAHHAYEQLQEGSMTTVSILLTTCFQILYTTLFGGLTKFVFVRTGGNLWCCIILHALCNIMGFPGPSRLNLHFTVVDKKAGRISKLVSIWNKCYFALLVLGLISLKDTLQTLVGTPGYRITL

[8] = inhibitors of intracellular T. cruzi replication, confirmation, NIH3T3 host cells, beta-gal luminescence (AID 2044); assay type: functional, cell-based;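 also: intracellular parasites grown in NIH/3T3 mouse fibroblasts as host cells; luminescent beta-galactosidase reporter signal from transgenic T. cruzi replicating inside host cells; inhibitors lower the luminescence signal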
[9] = cytotoxicity toward NIH3T3 fibroblasts, dose response, counter-screen, cell-based, ATP luminescence, mouse fibroblasts (AID 2010); assay type: functional;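 also: cells exposed to compound for about 90 hours before reading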
[10] = biological target: Voltage-dependent T-type calcium channel subunit alpha-1H (Homo sapiens, UniProt O95180); assay type: functional;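 also: channel activity triggered by adding a high calcium stimulation buffer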
Beta-galactosidase = Beta-galactosidase (Escherichia coli, UniProt Q8VNN2); assay: Dose response counterscreen for EBI2 assay utilizing the enzyme, b-galactosidase.; assay type: functional
cells [11] = assay type: functional, cell-based; remark: listed apart in the source
cells [12] = assay type: functional, cell-based; remark: listed apart in the source
[13] = HEp-2 cell cytotoxicity, dose response, cytotoxicity control for RSV inhibitor project, HTS (AID 2410); assay type: functional; conditions: human respiratory syncytial virus
[14] = biological target: T2, RNA-binding protein pos-1 (Caenorhabditis elegans, UniProt G5EF15); assay: inhibitors of POS-1/mex-3 RNA binding, dose response, biochemical, fluorescence polarization (AID 1964);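 also: purified POS-1 fused to maltose binding protein made in E. coli; potency of compounds blocking POS-1 binding to fluorescent RNA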
T2 sequence (G5EF15 whole entry): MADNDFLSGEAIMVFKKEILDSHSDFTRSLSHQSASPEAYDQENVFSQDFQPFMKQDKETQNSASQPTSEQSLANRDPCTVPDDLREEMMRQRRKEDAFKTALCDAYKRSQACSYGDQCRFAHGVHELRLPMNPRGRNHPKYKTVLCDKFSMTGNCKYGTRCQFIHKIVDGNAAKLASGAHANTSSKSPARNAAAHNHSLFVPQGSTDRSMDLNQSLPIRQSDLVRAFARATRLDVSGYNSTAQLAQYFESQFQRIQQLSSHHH

[15] = biological target: T3, Zinc finger protein mex-5 (Caenorhabditis elegans, UniProt Q9XUB2); assay: MEX-5/TCR-2 RNA interaction inhibitors, dose response, biochemical, C. elegans, fluorescence polarization (AID 1960)
T3 sequence (Q9XUB2 whole entry): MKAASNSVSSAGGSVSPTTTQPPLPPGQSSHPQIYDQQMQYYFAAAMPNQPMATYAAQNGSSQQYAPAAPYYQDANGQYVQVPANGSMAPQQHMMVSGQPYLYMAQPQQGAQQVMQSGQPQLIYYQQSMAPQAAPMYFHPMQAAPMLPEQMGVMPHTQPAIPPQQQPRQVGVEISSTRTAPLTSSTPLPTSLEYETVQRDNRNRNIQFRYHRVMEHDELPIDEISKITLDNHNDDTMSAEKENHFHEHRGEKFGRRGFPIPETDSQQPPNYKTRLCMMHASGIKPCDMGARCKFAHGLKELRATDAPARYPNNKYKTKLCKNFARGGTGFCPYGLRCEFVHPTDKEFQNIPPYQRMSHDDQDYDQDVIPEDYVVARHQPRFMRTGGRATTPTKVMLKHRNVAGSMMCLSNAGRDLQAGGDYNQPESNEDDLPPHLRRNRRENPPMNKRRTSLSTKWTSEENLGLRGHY

[16] = biological target: T4, Endoribonuclease toxin MazF (Escherichia coli K-12, UniProt P0AE70); assay: MazF toxin RNase activators, dose response, biochemical, fluorescence, single-stranded RNA substrate, uHTS hits (AID 588481); assay type: functional
T4 sequence (P0AE70 whole entry): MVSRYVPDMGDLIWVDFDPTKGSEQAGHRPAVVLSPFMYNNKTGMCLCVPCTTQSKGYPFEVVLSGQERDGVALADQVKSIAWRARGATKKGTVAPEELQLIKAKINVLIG

[17] = biological target: T4, Endoribonuclease toxin MazF; assay: fluorescent RNA oligo signal without MazF, dose response, counter-screen for MazEF activator project, biochemical, fluorescence, single-stranded RNase substrate (AID 588502); assay type: functional
[18] = A cytotoxicity screen of small molecule inhibitors of the PhoP region in Salmonella typhi identified in the primary screen. [Related pubchem assays: 1850, 1864, 1985 ]; assay type: functional
[19] = biological target: T5, Heat shock factor protein 1 (Mus musculus, UniProt P38532); assay: HSF1 potentiators in luciferase reporter cells, confirmation, cell-based, NIH3T3, luminescence, dose retest (AID 435004); assay type: functional;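 also: stress induced by proteasome inhibitor MG132 added 30 min after compound; luciferase reporter driven by HSF1 response element in NIH3T3 cells; actives raise luminescence as potentiators of the MG132 stress response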
T5 sequence (P38532 whole entry): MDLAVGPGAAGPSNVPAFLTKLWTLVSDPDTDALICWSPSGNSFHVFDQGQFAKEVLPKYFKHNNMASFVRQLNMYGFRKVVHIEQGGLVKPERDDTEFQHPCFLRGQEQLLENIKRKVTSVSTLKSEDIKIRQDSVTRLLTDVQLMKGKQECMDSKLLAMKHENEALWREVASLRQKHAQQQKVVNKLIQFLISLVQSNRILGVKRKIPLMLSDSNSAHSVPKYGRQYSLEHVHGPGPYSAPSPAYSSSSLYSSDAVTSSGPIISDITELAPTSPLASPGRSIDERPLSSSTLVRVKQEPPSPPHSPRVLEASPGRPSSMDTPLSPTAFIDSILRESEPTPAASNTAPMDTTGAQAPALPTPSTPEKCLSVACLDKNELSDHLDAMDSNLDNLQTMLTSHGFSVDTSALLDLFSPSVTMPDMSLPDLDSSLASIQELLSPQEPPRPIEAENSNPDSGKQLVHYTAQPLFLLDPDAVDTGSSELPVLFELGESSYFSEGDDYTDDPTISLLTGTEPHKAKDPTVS

[20] = tested on: Streptococcus sp. 'group A'; assay: growth inhibition of control SK(-) GAS strain, dose response, counter-screen for streptokinase expression inhibitor project, luminescence, kanamycin, BacTiterGlo, confirmation (AID 1900); assay type: functional, organism-based
Streptokinase A = biological target: T6, Streptokinase A (Streptococcus pyogenes serotype M1, UniProt P10520); assay: S. pyogenes streptokinase expression inhibitors, potency, dose response, plasminogen activation absorbance, OD405 (AID 1914); assay type: functional, Streptococcus pyogenes M1 GAS;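 also: secreted streptokinase activity via plasminogen activation per viability signal from cell pellet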
T6 sequence (P10520 whole entry): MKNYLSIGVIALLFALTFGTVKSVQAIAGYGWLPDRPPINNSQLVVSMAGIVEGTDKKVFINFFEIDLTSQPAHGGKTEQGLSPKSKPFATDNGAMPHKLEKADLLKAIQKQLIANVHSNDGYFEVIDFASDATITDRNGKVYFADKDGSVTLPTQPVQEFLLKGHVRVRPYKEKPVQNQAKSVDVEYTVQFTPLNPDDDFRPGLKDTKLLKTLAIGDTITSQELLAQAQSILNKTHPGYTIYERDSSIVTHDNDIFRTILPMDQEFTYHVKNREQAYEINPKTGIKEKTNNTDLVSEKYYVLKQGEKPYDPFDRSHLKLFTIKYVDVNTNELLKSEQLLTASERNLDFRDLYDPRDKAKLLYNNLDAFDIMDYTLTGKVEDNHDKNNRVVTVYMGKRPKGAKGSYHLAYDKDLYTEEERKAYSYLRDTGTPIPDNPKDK

Streptococcus = assay: Group A Streptococcus viability loss, dose response, counter-screen for streptokinase expression inhibitor project, luminescence, BacTiterGlo (AID 1915); assay type: functional, organism-based;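 also: potency for reduction of bacterial viability or growth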
H9c2 = assay: cells; assay type: functional, cell-based; conditions: Rattus norvegicus, H9c2, Myocardium

## Cc1cc(C)c(C#N)c(=N)o1
[1]
  IC50: 37.4 µM (active)

## Cc1nnc(SCc2ccccc2)n1N
[2]
  EC50: > 79.4 µM (not active)
[3]
  EC50: > 79.4 µM (not active)
[4]
  EC50: > 79.4 µM (not active)

## CCN(CC)C(=O)CSc1nc(O)c(Cc2ccccc2)c(=O)n1-c1ccccc1
Major prion protein
  IC50: 14.6 µM (inactive)
Cells [5]
  IC50: > 138 µM (inactive)

## Cc1cccc(N(CC(=O)N2CCN(c3ccc(F)cc3)CC2)S(C)(=O)=O)c1C
[2]
  EC50: > 79.4 µM (not active)
[3]
  EC50: > 79.4 µM (not active)
[4]
  EC50: > 79.4 µM (not active)

## CC(=O)Nc1ccc(-c2ccnc(-c3ccc(NC(C)=O)cc3)n2)cc1
Major prion protein
  IC50: 26.7 µM (inactive)
Cells [5]
  IC50: > 138 µM (inactive)

## O=C(Nc1cccc(-c2cn3ccccc3n2)c1)C1CC1
Cells [6]
  EC50: > 350 µM (not active)
Cells [7]
  EC50: > 350 µM (not active)
CAAX prenyl protease 2
  AC50: 31.9 µM (active)

## O=C(O)CSc1ncnc2sc3c(c12)CCCC3
Major prion protein
  IC50: 8.49 µM (active)
Cells [5]
  IC50: > 138 µM (inactive)

## Cc1ccc(OCC(=O)N2CCN(c3nnc(-c4ccccc4)c4ccccc34)CC2)cc1
[8]
  EC50: 1.92 µM (active)
[9]
  EC50: > 60 µM (not active)
[10]
  EC50: 3.8 µM (active)
Beta-galactosidase
  IC50: > 80 µM (inactive)

## Oc1nc(Nc2ccccc2)nc(N2CCCCC2)n1
Cells [11]
  IC50: > 29.9 µM (inactive)
Cells [12]
  EC50: > 29.9 µM (inactive)

## COc1cccc(C(=O)Nc2nnc(SCC(=O)NC3CCCC3)s2)c1
CAAX prenyl protease 2
  AC50: 52.3 µM (active)

## COc1ccc(NC(=S)N2CCc3ccccc3C2)cc1OC
Cells [11]
  IC50: > 29.9 µM (inactive)
Cells [12]
  EC50: > 29.9 µM (inactive)

## CCOC(=O)c1cc(-c2ccccc2)sc1NC(=O)C(C)Sc1nnnn1C (centres undefined)
[13]
  CC50: > 50 µM (active)
CAAX prenyl protease 2
  AC50: 7.54 µM (active)

## Oc1nc2ccccc2nc1/C=C/c1ccc(F)cc1
[14]
  EC50: 41.9 µM (inconclusive)
[15]
  EC50: > 300 µM (not active)
[16]
  EC50: 15.6 µM (active)
[17]
  EC50: > 99 µM (inactive)

## CC1C(Br)C(=O)NC(=O)N1Cc1ccccc1 (centres undefined)
[2]
  EC50: > 79.4 µM (not active)
[3]
  EC50: > 79.4 µM (not active)
[4]
  EC50: > 79.4 µM (not active)

## CCS(=O)(=O)N1CCN(C2CCC(c3ccccc3)CC2)CC1 (centres undefined)
[2]
  EC50: > 79.4 µM (not active)
[3]
  EC50: > 79.4 µM (not active)
[18]
  EC50: > 50 µM (active)
[4]
  EC50: > 79.4 µM (not active)

## Cc1cc(OCc2ccccc2)ccc1C(=O)C1=C(O)C(=O)N(Cc2cccnc2)C1c1ccncc1 (centres undefined)
Major prion protein
  IC50: 12.5 µM (inactive)
Cells [5]
  IC50: > 138 µM (inactive)

## COc1cccc(NC(=S)NC(=O)c2c(Cl)c(C)nn2C)c1
[2]
  EC50: > 79.4 µM (not active)
[3]
  EC50: > 79.4 µM (not active)
[4]
  EC50: > 79.4 µM (not active)
[19]
  EC50: 63.7 µM (active)

## CC(=O)N1CCN(c2ccc(NC(=O)/C=C/c3ccccc3)cc2)CC1
[2]
  EC50: > 79.4 µM (not active)
[3]
  EC50: > 79.4 µM (not active)
[4]
  EC50: > 79.4 µM (not active)

## CSc1cc(-c2ccc(Cl)cc2)n(Cc2ccccc2)c(=O)c1C#N
[2]
  EC50: 41.4 µM (not active)
[3]
  EC50: 44.7 µM (not active)
[4]
  EC50: 80.7 µM (not active)

## COc1ccc(-c2nc3ccccc3c(=O)n2NC(=S)N(C)C)cc1
[1]
  IC50: 35.1 µM (active)

## COc1ccccc1N1CCN(C(=O)/C=C/c2ccc(C)cc2)CC1
[20]
  EC50: > 150 µM (not active)
Streptokinase A
  EC50: 107 µM (active)
Streptococcus
  EC50: > 150 µM (not active)
Beta-galactosidase
  IC50: > 80 µM (inactive)

## CCc1cc2cccc(C)c2nc1SCC(=O)N1CCN(C(=O)c2ccco2)CC1
H9c2
  IC50: > 79 µM (inactive)
Major prion protein
  IC50: 10.7 µM (inactive)
Cells [5]
  IC50: 54.9 µM (inactive)

## CC(=O)c1ccc(N2CCN(C(=O)c3cc4c(C)nc5ccccc5c4o3)CC2)cc1
[16]
  EC50: > 99 µM (inactive)
[17]
  EC50: 30.7 µM (inactive)

## CC1(C)CC(=O)C(=NNc2cc3c(cc2[N+](=O)[O-])OCCO3)C(=O)C1
[16]
  EC50: > 99 µM (inactive)
[17]
  EC50: 29.6 µM (inactive)

## C[C@H]1COc2c3ccc(I)cc3nn21
Major prion protein
  IC50: 3.61 µM (active)
Cells [5]
  IC50: > 138 µM (inactive)

— ChEMBL document CHEMBL1201862, “PubChem BioAssay data set” (2004)
